Test results published in patent publication US20260001928A1 (CORTERIA PHARMACEUTICALS, priority 2022, published 2026).
*1 amine or outer side, *2 acyl side, *3 side chain or, on linkers, in order; H or OH if unused. Where a SMILES comes first, the peptide text is derived from it. Side-chain parts run from the residue outwards. [ ]: non-standard residue; d: D form. The star is where a group is joined. C20 diacid = O=C(O)CCCCCCCCCCCCCCCCCCC(=O)*; C16 diacid = O=C(O)CCCCCCCCCCCCCCC(=O)*; γGlu = O=C(O)[C@H](CCC(=O)[*:2])N[*:1]; C14 diacid = O=C(O)CCCCCCCCCCCCC(=O)*; NMeI = CC[C@H](C)[C@H](NC)C(=O)O; Isovaleryl = CC(C)CC(=O)*; Api = NC1(C(=O)O)CCNCC1; AEEA = NCCOCCOCC(=O)O; Aib = CC(C)(N)C(=O)O

How the values were obtained:
human CRF2a receptor = target: T1, human CRF2a receptor (Homo sapiens, UniProt Q13324); test: Activity at human CRF2a receptor, cAMP functional assay in TeloHEAC cells; format: cell-based; conditions: TeloHEAC cells stably expressing human CRF2a receptor, relative to urocortin 2 (100 nM = 100%)
T1 construct: expressed in transfected cells; host or cells: TeloHEAC cells
T1 sequence (Q13324 1-411): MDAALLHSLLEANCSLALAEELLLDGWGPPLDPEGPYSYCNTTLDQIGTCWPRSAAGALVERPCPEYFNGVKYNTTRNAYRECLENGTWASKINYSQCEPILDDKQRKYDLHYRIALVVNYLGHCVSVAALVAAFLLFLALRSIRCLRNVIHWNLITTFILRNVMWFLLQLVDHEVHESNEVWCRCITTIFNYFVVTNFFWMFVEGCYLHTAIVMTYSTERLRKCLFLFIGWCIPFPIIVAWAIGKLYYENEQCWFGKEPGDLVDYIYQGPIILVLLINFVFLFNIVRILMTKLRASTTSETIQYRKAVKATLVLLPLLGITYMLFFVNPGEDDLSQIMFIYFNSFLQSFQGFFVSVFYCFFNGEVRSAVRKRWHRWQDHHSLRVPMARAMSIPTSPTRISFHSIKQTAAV
In short: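 TeloHEAC cells stably expressing human CRF2a (10000 cells/well) were treated with 16-point 1:2 compound dilutions in HBSS/20 mM HEPES with IBMX for 30 min at 37° C. cAMP was read by HTRF (665/620 nm ratio). EC50 was the concentration giving 50% activation, with 100 nM urocortin 2 set as 100%.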

CFR1R receptor = target: T2, CFR1R receptor (Homo sapiens, UniProt P34998); test: Activity at anti-target CFR1R receptor, cAMP assay in CRF1R-overexpression CHO-K1 cells; format: cell-based; conditions: 100% = Sauvagine at 100 nM; for EC50: cAMP
T2 construct: host or cells: CHO-K1 (clone 2)
T2 sequence (P34998 24-415): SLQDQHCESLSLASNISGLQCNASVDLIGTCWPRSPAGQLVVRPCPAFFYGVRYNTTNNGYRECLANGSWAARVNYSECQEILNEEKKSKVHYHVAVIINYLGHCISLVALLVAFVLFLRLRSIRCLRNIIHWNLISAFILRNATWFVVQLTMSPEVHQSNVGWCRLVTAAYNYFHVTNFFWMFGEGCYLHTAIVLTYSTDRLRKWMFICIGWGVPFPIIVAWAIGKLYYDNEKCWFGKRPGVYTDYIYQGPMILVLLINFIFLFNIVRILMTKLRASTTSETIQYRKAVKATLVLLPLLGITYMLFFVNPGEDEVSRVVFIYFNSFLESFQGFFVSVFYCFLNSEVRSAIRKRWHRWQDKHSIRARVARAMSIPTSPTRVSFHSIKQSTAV
In short: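 cAMP readout in CRF1R-overexpressing CHO-K1 cells (clone 2), run as for the TeloHAEC assay at 4000 cells/well final. Cells came from cryopreserved banks. Sauvagine at 100 nM defined 100% activation.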

Structure (SMILES)	EC50 (human CRF2a receptor) [nM]	Emax (% I) (CFR1R receptor)	EC50 (CFR1R receptor) [nM]
CC[C@H](C)[C@H](NC(C)=O)C(=O)N[C@H](C(=O)N[C@@H](CC(C)C)C(=O)N[C@@H](CO)C(=O)N[C@@H](CC(C)C)C(=O)N[C@@H](CC(=O)O)C(=O)N[C@@H](C(=O)N1CCC[C@H]1C(=O)N[C@H](C(=O)N[C@@H](CCCCN)C(=O)N[C@@H](CC(C)C)C(=O)N[C@@H](CCCCNC(=O)COCCOCCNC(=O)COCCOCCNC(=O)CC[C@H](NC(=O)CCCCCCCCCCCCC(=O)O)C(=O)O)C(=O)N[C@@H](CCCCN)C(=O)N[C@H](C(=O)N[C@@H](CC(C)C)C(=O)N[C@@H](CC(C)C)C(=O)N[C@@H](CCC(=O)O)C(=O)N[C@@H](CCC(N)=O)C(=O)N[C@@H](CCC(=O)O)C(=O)N[C@@H](CCCCN)C(=O)N[C@@H](CCC(N)=O)C(=O)N[C@@H](CCCCN)C(=O)N[C@@H](CCCCN)C(=O)N[C@@H](CCC(N)=O)C(=O)N[C@@H](CCCNC(=N)N)C(=O)N[C@@H](CCC(=O)O)C(=O)N[C@@H](CCC(N)=O)C(=O)N[C@@H](C)C(=O)N[C@@H](CCC(=O)O)C(=O)N[C@H](C(=O)N[C@@H](CC(N)=O)C(=O)NC1(C(=O)N[C@@H](CCC(N)=O)C(=O)N[C@H](C(=O)N[C@@H](CC(C)C)C(=O)N[C@@H](C)C(=O)N[C@@H](CCC(N)=O)C(=O)N[C@H](C(N)=O)C(C)C)[C@@H](C)CC)CCNCC1)[C@@H](C)O)[C@@H](C)CC)[C@@H](C)CC)C(C)C)C(C)C [compound 172] (Ac-IVLSLD[dV]PIKLK([AEEA-AEEA-γGlu-C14 diacid])KILLEQEKQKKQREQAETN[Api]QILAQV-NH2)	16.1	−6	> 250
CC[C@H](C)[C@H](NC(=O)[C@H](CCC(N)=O)NC(=O)[C@H](CCCCNC(=O)CC[C@H](NC(=O)CCCCCCCCCCCCCCC(=O)O)C(=O)O)NC(=O)[C@H](CC(C)C)NC(=O)[C@H](CCCCN)NC(=O)[C@@H](NC(=O)[C@@H]1CCCN1C(=O)[C@H](NC(=O)[C@H](CC(=O)O)NC(=O)[C@H](CC(C)C)NC(=O)[C@H](CO)NC(=O)[C@H](CC(C)C)NC(=O)[C@@H](NC(=O)CC(C)C)C(C)C)C(C)C)[C@@H](C)CC)C(=O)N[C@@H](CC(C)C)C(=O)N[C@@H](CC(C)C)C(=O)N[C@@H](CCCCN)C(=O)N[C@@H](CCC(N)=O)C(=O)N[C@@H](CCC(=O)O)C(=O)N[C@@H](CCCNC(=N)N)C(=O)N[C@@H](CCC(N)=O)C(=O)N[C@@H](CCCCN)C(=O)N[C@@H](CCCCN)C(=O)N[C@@H](CCC(N)=O)C(=O)N[C@@H](CCCNC(=N)N)C(=O)N[C@@H](CCC(=O)O)C(=O)N[C@@H](CCC(N)=O)C(=O)N[C@@H](C)C(=O)N[C@@H](CCC(=O)O)C(=O)N[C@@H](CCCCN)C(=O)N[C@@H](CC(N)=O)C(=O)N[C@@H](CCCCN)C(=O)N[C@@H](CCC(N)=O)C(=O)N[C@H](C(=O)N[C@@H](CC(C)C)C(=O)N[C@@H](CCC(=O)O)C(=O)N[C@@H](CCC(N)=O)C(=O)N[C@H](C(N)=O)C(C)C)[C@@H](C)CC [compound 9] (Isovaleryl-VLSLD[dV]PIKLK([γGlu-C16 diacid])QILLKQERQKKQREQAEKNKQILEQV-NH2)	0.16	77	–
CC[C@H](C)[C@H](NC(C)=O)C(=O)N[C@H](C(=O)N[C@@H](CC(C)C)C(=O)N[C@@H](CO)C(=O)N[C@@H](CC(C)C)C(=O)N[C@@H](CC(=O)O)C(=O)N[C@@H](C(=O)N1CCC[C@H]1C(=O)N[C@H](C(=O)NCC(=O)N[C@@H](CC(C)C)C(=O)N[C@@H](CCCCNC(=O)CC[C@H](NC(=O)CCCCCCCCCCCCCCCCCCC(=O)O)C(=O)O)C(=O)N[C@@H](CCCCN)C(=O)N[C@H](C(=O)N[C@@H](CC(C)C)C(=O)N[C@@H](CC(C)C)C(=O)N[C@@H](CCC(=O)O)C(=O)N[C@@H](CCC(N)=O)C(=O)N[C@@H](CCC(=O)O)C(=O)N[C@@H](CCCCN)C(=O)N[C@@H](CCC(N)=O)C(=O)N[C@@H](CCCCN)C(=O)N[C@@H](CCCCN)C(=O)N[C@@H](CCC(N)=O)C(=O)N[C@@H](CCCNC(=N)N)C(=O)N[C@@H](CCC(=O)O)C(=O)N[C@@H](CCC(N)=O)C(=O)N[C@@H](C)C(=O)N[C@@H](CCC(=O)O)C(=O)N[C@H](C(=O)N[C@@H](CC(N)=O)C(=O)NC1(C(=O)N[C@@H](CCC(N)=O)C(=O)N[C@H](C(=O)N[C@@H](CC(C)C)C(=O)N[C@@H](C)C(=O)N[C@@H](CCC(N)=O)C(=O)N[C@H](C(N)=O)C(C)C)[C@@H](C)CC)CCNCC1)[C@@H](C)O)[C@@H](C)CC)[C@@H](C)CC)C(C)C)C(C)C [compound 227] (Ac-IVLSLD[dV]PIGLK([γGlu-C20 diacid])KILLEQEKQKKQREQAETN[Api]QILAQV-NH2)	0.2	97	–
CC[C@H](C)[C@H](NC)C(=O)N[C@H](C(=O)N[C@@H](CC(C)C)C(=O)N[C@@H](CO)C(=O)N[C@@H](CC(C)C)C(=O)N[C@@H](CC(=O)O)C(=O)N[C@@H](C(=O)N1CCC[C@H]1C(=O)N[C@H](C(=O)N[C@@H](CCCCN)C(=O)N[C@@H](CC(C)C)C(=O)N[C@@H](CCCCNC(=O)CC[C@H](NC(=O)CCCCCCCCCCCCCCC(=O)O)C(=O)O)C(=O)N[C@@H](CCC(N)=O)C(=O)N[C@H](C(=O)N[C@@H](CC(C)C)C(=O)N[C@@H](CC(C)C)C(=O)N[C@@H](CCCCN)C(=O)N[C@@H](CCC(N)=O)C(=O)N[C@@H](CCC(=O)O)C(=O)N[C@@H](CCCNC(=N)N)C(=O)N[C@@H](CCC(N)=O)C(=O)N[C@@H](CCCCN)C(=O)N[C@@H](CCCCN)C(=O)N[C@@H](CCC(N)=O)C(=O)N[C@@H](CCCNC(=N)N)C(=O)N[C@@H](CCC(=O)O)C(=O)N[C@@H](CCC(N)=O)C(=O)N[C@@H](C)C(=O)N[C@@H](CCC(=O)O)C(=O)N[C@@H](CCCCN)C(=O)N[C@@H](CC(N)=O)C(=O)N[C@@H](CCCCN)C(=O)N[C@@H](CCC(N)=O)C(=O)N[C@H](C(=O)N[C@@H](CC(C)C)C(=O)N[C@@H](CCC(=O)O)C(=O)N[C@@H](CCC(N)=O)C(=O)N[C@H](C(N)=O)C(C)C)[C@@H](C)CC)[C@@H](C)CC)[C@@H](C)CC)C(C)C)C(C)C [SEQ ID No. 5, reference compound] (H-[NMeI]VLSLD[dV]PIKLK([γGlu-C16 diacid])QILLKQERQKKQREQAEKNKQILEQV-NH2)	0.09	48	–
CC[C@H](C)[C@H](NC(C)=O)C(=O)N[C@H](C(=O)N[C@@H](CC(C)C)C(=O)N[C@@H](CO)C(=O)N[C@@H](CC(C)C)C(=O)N[C@@H](CC(=O)O)C(=O)N[C@@H](C(=O)N1CCC[C@H]1C(=O)N[C@H](C(=O)N[C@@H](CCCCN)C(=O)N[C@@H](CC(C)C)C(=O)N[C@@H](CCCCNC(=O)CC[C@H](NC(=O)CCCCCCCCCCCCCCC(=O)O)C(=O)O)C(=O)N[C@@H](CCCCN)C(=O)N[C@H](C(=O)N[C@@H](CC(C)C)C(=O)N[C@@H](CC(C)C)C(=O)N[C@@H](CCC(=O)O)C(=O)N[C@@H](CCC(N)=O)C(=O)N[C@@H](CCC(=O)O)C(=O)N[C@@H](CCCCN)C(=O)N[C@@H](CCC(N)=O)C(=O)N[C@@H](CCCCN)C(=O)N[C@@H](CCC(=O)O)C(=O)N[C@@H](CCC(N)=O)C(=O)N[C@@H](CCCNC(=N)N)C(=O)N[C@@H](CCC(=O)O)C(=O)N[C@@H](CCC(N)=O)C(=O)N[C@@H](C)C(=O)N[C@@H](CCC(=O)O)C(=O)N[C@H](C(=O)N[C@@H](CC(N)=O)C(=O)NC(C)(C)C(=O)N[C@@H](CCC(N)=O)C(=O)N[C@H](C(=O)N[C@@H](CC(C)C)C(=O)N[C@@H](C)C(=O)N[C@@H](CCC(N)=O)C(=O)N[C@H](C(N)=O)C(C)C)[C@@H](C)CC)[C@@H](C)O)[C@@H](C)CC)[C@@H](C)CC)C(C)C)C(C)C [compound 168] (Ac-IVLSLD[dV]PIKLK([γGlu-C16 diacid])KILLEQEKQKEQREQAETN[Aib]QILAQV-NH2)	0.8	3	> 250
